Measurements: patent US7622581B2, “6,7,8,9-substituted 1-phenyl-1,5-dihydro-pyrido[3,2-b]indol-2-ones useful as anti-infective pharmaceutical agents” (Tibotec Pharmaceuticals Ltd., priority 2004, dated 2009)

These compounds were tested on HIV (assay: Cellular assay: anti-viral activity in HIV-infected MT4 cells (MTT viability)). Settings: Human immunodeficiency virus 1, 120 h, five days incubation, MTT readout, negative logarithm of EC50 (protection of 50% of cells from cytopathogenic effect of the virus).
Assay type: cell-based
Procedure: The compounds of the present invention were examined for anti-viral activity in a cellular assay, which was performed according to the following procedure.
HIV- or mock-infected MT4 cells were incubated for five days in the presence of various concentrations of the inhibitor. At the end of the incubation period, the replicating virus in the control cultures has killed all HIV-infected cells in the absence of any inhibitor. Cell viability was determined by measuring the concentration of MTT, a yellow, water soluble tetrazolium dye that is converted to a purple, water insoluble formazan in the mitochondria of living cells only. Upon solubilization of the resulting formazan crystals with isopropanol, the absorbance of the solution was monitored at 540 nm. The values correlate directly to the number of living cells remaining in the culture at the completion of the five day incubation. The inhibitory activity of the compound was monitored on the virus-infected cells and was expressed as EC50 and EC90. These values represent the amount of the compound required to protect 50% and 90%, respectively, of the cells from the cytopathogenic effect of the virus. The toxicity of the compound was measured on the mock-infected cells and was expressed as CC50, which represents the concentration of compound required to inhibit the growth of the cells by 50%. The selectivity index (SI) (ratio CC50/EC50) is an indication of the selectivity of the anti-HIV activity of the inhibitor. Wherever results are reported as e.g. pEC50 or pCC50 values, the result is expressed as the negative logarithm of the result expressed as EC50 or CC50 respectively.

Compound	EC50 [nM]
CN(C)CCCOc1ccc2c(c1)c1c(cc(C#N)c(=O)n1-c1ccc([N+](=O)[O-])cc1)n2C [Compound 18, 8-[(3-Dimethylamino-propyl)-oxy]-5-methyl-1-(4-nitro-phenyl)-2-oxo-2,5-dihydro-1H-pyrido[3,2-b]indole-3-carbonitrile]	251
CN1CCN(c2ccc3c(c2)c2c(cc(C#N)c(=O)n2-c2ccc([N+](=O)[O-])cc2)n3C)CC1 [Compound 4]	316
Cc1ccc2c(c1)c1c(cc(C#N)c(=O)n1-c1ccc([N+](=O)[O-])cc1)n2C [Compound 26]	15800
Cn1c2ccc(N3CCOCC3)cc2c2c1cc(C#N)c(=O)n2-c1ccc([N+](=O)[O-])cc1 [Compound 3, 8-morpholin-5-methyl-1-(4-nitro-phenyl)-2-oxo-2,5-dihydro-1H-pyrido[3,2-b]indole-3-carbonitrile]	2510
COc1ccc2c(c1)c1c(cc(C#N)c(=O)n1-c1ccc([N+](=O)[O-])cc1)n2C [Compound 27, 8-methoxy-5-methyl-1-(4-nitro-phenyl)-2-oxo-2,5-dihydro-1H-pyrido[3,2-b]indole-3-carbonitrile]	79.4
COC(=O)c1ccc2c(c1)c1c(cc(C#N)c(=O)n1-c1ccc(N)cc1)n2C [Compound 9]	15800
CN(C)CCCN(C)c1ccc2c(c1)c1c(cc(C#N)c(=O)n1-c1ccc([N+](=O)[O-])cc1)n2C [Compound 7, 8-[(3-Dimethylamino-propyl)-methylamino]-5-methyl-1-(4-nitro-phenyl)-2-oxo-2,5-dihydro-1H-pyrido[3,2-b]indole-3-carbonitrile]	158
Cn1c2ccc(N)cc2c2c1cc(C#N)c(=O)n2-c1ccc([N+](=O)[O-])cc1 [Compound 8]	20000
COc1cc2c(cc1F)c1c(cc(C#N)c(=O)n1-c1ccc([N+](=O)[O-])cc1)n2C [Compound 16]	3980
N#Cc1cc2[nH]c3cc(F)c(F)cc3c2n(-c2ccc([N+](=O)[O-])cc2)c1=O [Compound 28]	2510
Cn1c2ccc(O)cc2c2c1cc(C#N)c(=O)n2-c1ccc([N+](=O)[O-])cc1 [Compound 29, 8-hydroxy-5-methyl-1-(4-nitro-phenyl)-2-oxo-2,5-dihydro-1H-pyrido[3,2-b]indole-3-carbonitrile]	200
Cn1c2cc(F)c(F)cc2c2c1cc(C#N)c(=O)n2-c1ccc([N+](=O)[O-])cc1 [Compound 15]	398
Cn1c2cc(O)ccc2c2c1cc(C#N)c(=O)n2-c1ccc([N+](=O)[O-])cc1 [Compound 32]	1260
COC(=O)c1ccc2c(c1)c1c(cc(C#N)c(=O)n1-c1ccc([N+](=O)[O-])cc1)n2C [Compound 12]	2000
